Test results reported in patent EP0870197B2, “USE OF NUCLEAR MAGNETIC RESONANCE TO DESIGN LIGANDS TO TARGET BIOMOLECULES” (priority 1995, dated 1997).
Where two headings read alike, the source gives them in different places. One block for each molecule: values may come before it.

How the values were obtained:
[1] = target: T1, DNA-binding domain of the E2 protein (Human papillomavirus 31, UniProt P17383); experiment: two-dimensional 15N/1H NMR correlation titration, binding constants for two binding sites
T1 construct: made in house; host or cells: bacteria, T7 expression system
Method: Compounds from the database were screened in a similar manner for binding to the DNA-binding domain of the E2 protein. Those compounds had the structure II below, where R1-R4 and A are defined in Table 2. [drawing 5]
NMR experiments were performed at 29°C on a Bruker AMX500 NMR spectrometer equipped with a triple resonance probe and Bruker sample changer. The ^15N-/^1H HSQC spectra were acquired as 80 x 1024 complex points using sweep widths of 2000 Hz (^15N,t1) and 8333 Hz (^1H, t2). A delay of 1 second between scans and 4 scans per free induction decay were employed in the data collection. All NMR spectra were processed and analyzed on Silicon Graphics computers.
By monitoring the chemical shift changes as a function of ligand concentration, binding constants for the two binding sites were also measured. Table 2 […]

[2] = target: T2, FKBP (Homo sapiens, UniProt P62942); experiment: two-dimensional 15N/1H NMR correlation titration, dissociation constant; format: binding; design: made in house; host or cells: recombinant
Method: The second step in the design process was the identification of a second ligand that bound to the target FKBP at a site different from the binding site of compound 29. This was accomplished by screening compounds for their ability to bind to FKBP in the presence of saturating amounts of the ascomycin fragment analog (compound 29). Details of procedures for this second identification step are as set forth in example 2.
In the second round of screening, binding was assayed both in the presence and in the absence of saturating amount of compound 29 (1 mM).
Various benzanilide compounds were tested for binding to FKBP at multiple ligand concentrations. The ^15N/^1H correlation spectra generated at each concentration were evaluated to quantify differences in the spectra as a function of compound concentration. A binding or dissociation constant (Kd) was calculated, using standard procedures well known in the art, from those differences. The values for R1-R4 in Table 5 refer to the corresponding positions in the structure III, above.

[3] = target: T2, FKBP; experiment: binding affinity by fluorescence titrations; design: made in house
[4] = target: T3, catalytic domain of stromelysin (Homo sapiens, UniProt P08254); experiment: two-dimensional 15N/1H NMR correlation titration, dissociation constant; format: binding
T3 construct: expression construct coding for amino acid residues 81-256 plus an initiating methionine; initiating methionine (N); made in house; host or cells: E. coli BL21(DE3)/pLysS, pET3d
Method: Binding or dissociation constants are measured by following the ^15N/^1H chemical shifts of the protein as a function of ligand concentration. A known concentration ([P]o) of the target molecule is mixed with a known concentration ([L]0) of a previously identified ligand and the two-dimensional ^15N/^1H correlation spectrum was acquired. From this spectrum, observed chemical shift values (δobs) are obtained. The process is repeated for varying concentrations of the ligand to the point of saturation of the target molecule, when possible, in which case the limiting chemical shift value for saturation (δsat) is measured.
In those situations where saturation of the target molecule is achieved, the dissociation constant for the binding of a particular ligand to the target molecule is calculated using the formula: KD = (([P]0−x)([L]0−x))/(x) [formula] where [P]0 is the total molar concentration of target molecule; [L]0 is the total molar concentration of ligand; and x is the molar concentration of the bound species. The value of x is determined from the equation: x = (δobs −δfree)/(Δ) [formula] where δfree is the chemical shift of the free species; δobs is the observed chemical shift; and Δ is the difference between the limiting chemical shift value for saturation (δsat) and the chemical shift value of the target molecule free of ligand (δfree).
The dissociation constant is then determined by varying its value until a best fitto the observed data is obtained using standard curve-fitting statistical methods. In the case where δsat is not directly known, both KD and δsat are varied and subjected to the same curve-fitting procedure.
The catalytic domain of stromelysin was prepared in accordance with the procedures of Example 1. The protein solutions used in the screening assay contained the uniformly ^15N-labeled catalytic domain of stromelysin (0.3 mM), acetohydroxamic acid (500 mM), CaCl2 (20 mM), and sodium azide (0.5%) in a H2O/D2O (9/1) TRIS buffered solution (50 mM, pH=7.0).
Two-dimensional ^15N/^1H NMR spectra were generated at 29°C on a Bruker AMX500 NMR spectrometer equipped with a triple resonance probe and Bruker sample changer. The ^15N/^1H HSQC spectra were acquired as 80 x 1024 complex points using sweep widths of 2000 Hz (^15N, t^1) and 8333 Hz (^1H, t2). A delay of 1 second between scans and 8 scans perfree induction decay(fid) were employed in the data collection. All NMR spectra were processed and analyzed on Silicon Graphics computers using in-house-written software.
A first two-dimensional ^15N/^1 H NMR correlation spectrum was acquired for the ^15N-labeled stromelysin target molecule as described above. The stromelysin target was then exposed to a database of test compounds. Stock solutions of the compounds were made at 100 mM and 1 M. In addition, a combination library was prepared that contained 8-10 compounds per sample at a concentration of 100 mM for each compound.
The NMR samples were prepared by adding 4 µl of the DMSO stock solution of the compound mixtures that contained each compound at a concentration of 100 mM to 0.4 ml H2O/D2O (9/1) buffered solution of the uniformly ^15N-labeled protein. The final concentration of each of the compounds in the NMR sample was about 1 mM.
Various biaryl compounds of structure I were tested for binding to stromelysin at differing concentrations. The ^15N/^1H spectra generated at each concentration were evaluated to quantify differences in the spectra as a function of compound concentration. A binding or dissociation constant (KD)was calculated, using standard procedures well known in the art, from those differences. The values for R1-R3 and A1-A3 in Table 1 refer to the corresponding positions in the structure I, above.
All NMR measurements were performed in the presence of 500 mM acetohydroxamic acid, except for the titration of acetohydroxamic acid itself. Dissociation constants were obtained from the dependence of the observed chemical shift changes upon added ligand. […]

[5] = target: T4, Stromelysin (Homo sapiens, UniProt P08254); experiment: stromelysin inhibition by linked hydroxamate-biaryl compounds; format: biochemical; conditions: for IC50: Table 4, kind of constant not given
T4 construct: expression construct coding for amino acid residues 81-256 plus an initiating methionine; initiating methionine (N); made in house; host or cells: E. coli BL21(DE3)/pLysS, pET3d

[6] = target: T3, catalytic domain of stromelysin; experiment: enzymatic assay, cleavage of a fluorogenic substrate; format: biochemical
Method: In a first study, binding constants were determined, both by the NMR method of the present invention, and by a prior art enzymatic assay. The target molecule was the catalytic domain of stromelysin prepared in accordance with the procedures of Example 1. […] The KD values so obtained were compared to an inhibition constant KI as determined in an enzymatic assay.
The enzymatic assay measured the rate of cleavage of a fluorogenic substrate by following the fluorescence increase upon peptide cleavage which causes a separation between the fluorophore and quencher. Enzymatic activity was measured using a matrix of different concentrations of acetohydroxamic acid and biaryl compounds. The assay is a modification of the method described by H. Weingarten, et al. in Anal. Biochem., 147: 437-440 (1985) employing the fluorogenic substrate properties described by E. Matayoshi, et al. in Science: 247: 954-958 (1990).
Eight acetohydroxamic acid concentrations were used ranging from 0.0 to 1.0 M, and six compound concentrations were used, resulting in a total of 48 points. Individual compound concentration varied due to solubility and potency.
All NMR measurements were performed in the presence of 500 mM acetohydroxamic acid, except for the titration of acetohydroxamic acid itself. Dissociation constants were obtained from the dependence of the observed chemical shift changes upon added ligand. Inhibition constants were then obtained from the inhibition data using standard procedures.

[7] = water solubility; format: physicochemical
[8] = target: T4, Stromelysin; experiment: inhibition of stromelysin degradation (autolysis); format: biochemical; conditions: at a concentration of 500 mM
Method: Studies were performed to design new ligands that bound to the catalytic domain of stromelysin. Because stromelysin undergoes autolysis, an inhibitor was sought to block the degradation of stromelysin. That inhibitor would facilitate the screening of other potential ligands that bind to other sites on the enzyme.
A variety of hydroxamic acids of the general formula R-(CO)NHOH were screened for binding to stromelysin using the procedures set forth in Example 2.

[9] = amides of the DNA-binding site, read-out: DNA KD
[10] = amides of the β-barrel site, read-out: β-barrel KD
[11] = Table 1, biaryl compounds of structure I, differing concentrations, read-out: KD
[12] = Table 3, in the presence of 500 mM acetohydroxamic acid, read-out: NMR KD
[13] = fluorogenic substrate, matrix of acetohydroxamic acid and compound concentrations, read-out: Assay KI

T4 sequence (P08254 98-273): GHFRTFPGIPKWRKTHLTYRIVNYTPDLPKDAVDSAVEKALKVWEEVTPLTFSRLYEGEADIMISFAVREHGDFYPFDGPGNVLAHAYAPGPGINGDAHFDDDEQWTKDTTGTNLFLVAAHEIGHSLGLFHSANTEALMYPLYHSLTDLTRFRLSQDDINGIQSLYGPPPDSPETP
T3 sequence (P08254 98-273): as above
T2 sequence (P62942 whole entry, the tested form may be a part): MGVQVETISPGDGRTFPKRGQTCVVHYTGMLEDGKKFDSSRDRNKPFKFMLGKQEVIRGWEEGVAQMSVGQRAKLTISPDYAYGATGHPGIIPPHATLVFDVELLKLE
T1 sequence (P17383 292-372): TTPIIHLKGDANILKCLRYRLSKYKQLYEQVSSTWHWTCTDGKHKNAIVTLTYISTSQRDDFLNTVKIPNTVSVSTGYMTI

Compound: OCc1cccc(Oc2ccccc2)c1 [Compound 14]
- Kd [1, 9]: > 50000 µM
- Kd [1, 10]: 2000 µM

Compound: O=C(Nc1ccccc1)c1ccccc1O [Compound 37]
- Kd [2]: > 5000 µM

- Kd [3]: 0.019 µM
- increase in potency over the ascomycin-fragment analog (compound 29) alone [3]: 100 fold
Compound: COc1cc(C(=O)C(=O)N2CCCC[C@H]2C(=O)OCCCOc2ccc(C(=O)Nc3ccc(O)cc3)cc2)cc(OC)c1OC

Compound: Oc1ccc(-c2ccccc2)cc1 [Compound 11]
- Kd [4]: 300 µM

- IC50 [5]: 1.7 µM
Compound: N#Cc1ccc(-c2ccc(OCCCCCC(=O)NO)cc2)cc1 [Compound 28]

- IC50 [5]: 0.31 µM
Compound: O=C(CCOc1ccc(-c2ccccc2)cc1)NO [Compound 21]

Compound: c1ccc(-c2ccncc2)cc1 [Compound 7]
- Kd ([4]; read-out: KD): 200 µM
- Kd ([4]; read-out: NMR KD): 170 µM
- Ki ([6]; read-out: Assay KI): 320 µM

Compound: O=C(O)c1ccc(-c2ccccc2)cc1 [Compound 15]
- Kd [1, 9]: 2000 µM
- Kd [1, 10]: > 50000 µM

Compound: CC(=O)NO [Acetohydroxamic acid, acetohydroxamic acid, reference compound]
- Kd ([4]; NMR screening of hydroxamic acids, read-out: binding affinity for stromelysin): 17000 µM
- Kd ([4]; Table 3, titration of acetohydroxamic acid itself, read-out: NMR KD): 17000 µM
- Ki [6]: 21100 µM
- water solubility [7]: good water solubility
- degradation of the enzyme [8]: inhibited the degradation of the enzyme

Compound: O=C(O)c1ccc(-c2cc(Cl)cc(Cl)c2)cc1 [Compound 16]
- Kd [1, 9]: 100 µM
- Kd [1, 10]: > 50000 µM

- Kd [2]: 600 µM
Compound: O=C(Nc1ccc(O)cc1)c1ccccc1 [Compound 34]

Compound: O=Cc1ccc(-c2ccccc2)cc1 [Compound 5]
- Kd [4]: 1700 µM

- Kd [3]: 2 µM
- occupancy of the binding site ([2]; ligand concentrations of 1 mM): > 98%
Compound: COC(=O)[C@@H]1CCCCN1C(=O)C(=O)c1cc(OC)c(OC)c(OC)c1 [Compound 29]

- Kd [2]: 800 µM
Compound: O=C(Nc1ccc(O)cc1)c1ccccc1O [Compound 30]

- Kd [4, 11]: 10 µM
- Kd [4, 12]: 20 µM
- Ki [6, 13]: 110 µM
Compound: N#Cc1ccc(-c2ccc(O)cc2)cc1 [Compound 12]

- IC50 [5]: 110 µM
Compound: O=C(CCCOc1ccc(-c2ccccc2)cc1)NO [Compound 22]

- Kd [2]: > 5000 µM
Compound: O=C(Nc1ccccc1)c1ccccc1 [Compound 36]

- Kd [2]: 500 µM
Compound: Cc1cc(C(=O)Nc2ccc(O)cc2)ccc1O [Compound 35]

Compound: c1cc(-c2ccncc2)ccn1 [Compound 10]
- Kd [4]: 400 µM
- Kd ([4]; read-out: NMR KD, Table 3, in the presence of 500 mM acetohydroxamic acid): 400 µM
- Ki [6]: 1800 µM

- Kd [4, 11]: 300 µM
Compound: CC(=O)Oc1ccc(-c2ccccc2)cc1 [Compound 8]

- Kd [4, 11]: 400 µM
Compound: COc1ccc(-c2ccccc2)cc1N [Compound 6]

Compound: O=C(O)C=Cc1ccc(-c2ccccc2)cc1 [Compound 18]
- Kd [1, 9]: 1200 µM
- Kd [1, 10]: 6200 µM

- inhibition at 100 µM [5]: 38%
Compound: O=C(CCCCOc1ccc(-c2ccccc2)cc1)NO [Compound 23]

- IC50 [5]: 3.4 µM
Compound: N#Cc1ccc(-c2ccc(OCCCC(=O)NO)cc2)cc1 [Compound 26]

- IC50 [5]: 3.5 µM
Compound: N#Cc1ccc(-c2ccc(OCCCCC(=O)NO)cc2)cc1 [Compound 27]

Compound: O=C(c1ccccc1)c1cccc(O)c1 [Compound 13]
- Kd [1, 9]: > 50000 µM
- Kd [1, 10]: 600 µM

- Kd [2]: 500 µM
Compound: O=C(Nc1ccccc1)c1ccc(O)cc1 [Compound 32]

- Kd [2]: 100 µM
Compound: O=C(Nc1ccc(O)cc1)c1ccc(O)cc1 [Compound 33]

- Kd [4, 11]: 3200 µM
Compound: OCc1ccc(-c2ccccc2)cc1 [Compound 2]

Compound: CC(CCc1ccc(Oc2ccccc2)cc1)CC(=O)O (centres unmarked) [Compound 19]
- Kd [1, 9]: 500 µM
- Kd [1, 10]: 200 µM

Compound: O=C(O)CCC(=O)c1ccc(Oc2ccccc2)cc1 [Compound 20]
- Kd [1, 9]: 2700 µM
- Kd [1, 10]: 4800 µM

- inhibition at 100 µM [5]: 43%
Compound: O=C(CCCCCOc1ccc(-c2ccccc2)cc1)NO [Compound 24]

- Kd [4, 11]: 1600 µM
- Kd [4, 12]: 1600 µM
- Ki [6, 13]: 7400 µM
Compound: c1ccc(-c2ccncn2)cc1 [Compound 4]

Compound: Oc1cccc(-c2ccccc2)c1 [Compound 1]
- Kd [4]: 1100 µM

- Kd [4, 11]: 1300 µM
Compound: Oc1ccc(-c2ccc(Br)cc2)cc1 [Compound 3]

- IC50 [5]: 0.025 µM
Compound: N#Cc1ccc(-c2ccc(OCCC(=O)NO)cc2)cc1 [Compound 25]

Compound: O=C(O)Cc1ccc(-c2ccccc2)cc1 [Compound 17]
- Kd [1, 9]: 4200 µM
- Kd [1, 10]: 4900 µM

- Kd [4, 11]: 10 µM
- Kd [4, 12]: 160 µM
- Ki [6, 13]: 700 µM
Compound: Oc1ccc(-c2ccc(O)cc2)cc1 [Compound 9]
